Source: BigSolDB 2.1

Cc1ccc(Nc2nccc(N(C)c3ccc4c(C)n(C)nc4c3)n2)cc1S(N)(=O)=O
solubility (mole fraction)
Details | 288.15 K | 293.15 K | 298.15 K | 303.15 K | 308.15 K | 313.15 K | 318.15 K | 323.15 K | 328.15 K
in ethanol | 7.97e-06 | 1.01e-05 | 1.27e-05 | 1.61e-05 | 1.96e-05 | 2.36e-05 | 2.85e-05 | 3.41e-05 | 4.04e-05
in ethyl acetate | 6.17e-06 | 8.06e-06 | 1.04e-05 | 1.31e-05 | 1.63e-05 | 2e-05 | 2.48e-05 | 3.06e-05 | 3.7e-05
in isopropanol | 9.43e-06 | 1.19e-05 | 1.49e-05 | 1.86e-05 | 2.25e-05 | 2.71e-05 | 3.25e-05 | 3.9e-05 | 4.69e-05
